# From ChEMBL document CHEMBL1139653, “Synthesis and biological evaluation of novel hexahydro-pyrido[3',2':4,5]pyrrolo[1,2-a]pyrazines as potent and selective 5-HT(2C) receptor agonists” (Bioorg Med Chem Lett, 2006)
# Legend:
# [1] = molecular target: T1, 5-hydroxytryptamine receptor 2C (Homo sapiens) (UniProt P28335); assay: Efficacy against human recombinant 5HT2C receptor expressed in CHO cells at 1 uM in relative to 10 uM 5HT by FLIPR; type: functional, cell-based
# T1 sequence (whole entry): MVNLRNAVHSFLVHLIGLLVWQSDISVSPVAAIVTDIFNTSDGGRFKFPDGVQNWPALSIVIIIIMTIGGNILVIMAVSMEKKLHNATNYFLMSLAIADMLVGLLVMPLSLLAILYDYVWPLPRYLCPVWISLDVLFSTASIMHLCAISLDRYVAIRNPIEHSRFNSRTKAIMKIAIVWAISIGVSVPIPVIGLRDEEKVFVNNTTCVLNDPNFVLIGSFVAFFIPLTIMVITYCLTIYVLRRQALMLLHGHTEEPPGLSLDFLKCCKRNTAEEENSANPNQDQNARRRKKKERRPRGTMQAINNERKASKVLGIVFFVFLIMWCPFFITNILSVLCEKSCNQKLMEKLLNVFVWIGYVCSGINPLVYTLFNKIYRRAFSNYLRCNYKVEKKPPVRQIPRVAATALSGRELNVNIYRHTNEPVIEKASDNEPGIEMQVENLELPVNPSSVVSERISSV
# [2] = molecular target: T2, 5-hydroxytryptamine receptor 2A (Homo sapiens, UniProt P28223); assay: Displacement of [125I]DOI from human recombinant 5HT2A receptor expressed in CHO cells; type: cell-based
# T2 sequence (P28223 whole entry): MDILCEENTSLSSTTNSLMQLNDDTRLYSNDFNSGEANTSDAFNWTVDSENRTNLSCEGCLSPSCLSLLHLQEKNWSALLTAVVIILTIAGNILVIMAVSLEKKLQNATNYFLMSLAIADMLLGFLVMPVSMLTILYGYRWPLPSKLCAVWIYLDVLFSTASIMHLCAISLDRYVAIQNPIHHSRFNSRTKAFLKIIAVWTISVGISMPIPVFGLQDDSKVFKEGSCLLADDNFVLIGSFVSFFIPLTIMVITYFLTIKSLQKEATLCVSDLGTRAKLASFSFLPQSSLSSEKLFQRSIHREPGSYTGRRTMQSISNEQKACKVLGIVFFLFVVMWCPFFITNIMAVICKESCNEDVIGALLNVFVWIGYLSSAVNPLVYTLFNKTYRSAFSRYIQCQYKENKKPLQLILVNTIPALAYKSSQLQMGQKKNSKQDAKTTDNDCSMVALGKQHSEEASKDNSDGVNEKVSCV
# [3] = molecular target: T3, 5-hydroxytryptamine receptor 2B (Homo sapiens, UniProt P41595); assay: Displacement of [3H]5HT from human recombinant 5HT2B receptor expressed in CHO cells; type: cell-based
# T3 sequence (P41595 whole entry): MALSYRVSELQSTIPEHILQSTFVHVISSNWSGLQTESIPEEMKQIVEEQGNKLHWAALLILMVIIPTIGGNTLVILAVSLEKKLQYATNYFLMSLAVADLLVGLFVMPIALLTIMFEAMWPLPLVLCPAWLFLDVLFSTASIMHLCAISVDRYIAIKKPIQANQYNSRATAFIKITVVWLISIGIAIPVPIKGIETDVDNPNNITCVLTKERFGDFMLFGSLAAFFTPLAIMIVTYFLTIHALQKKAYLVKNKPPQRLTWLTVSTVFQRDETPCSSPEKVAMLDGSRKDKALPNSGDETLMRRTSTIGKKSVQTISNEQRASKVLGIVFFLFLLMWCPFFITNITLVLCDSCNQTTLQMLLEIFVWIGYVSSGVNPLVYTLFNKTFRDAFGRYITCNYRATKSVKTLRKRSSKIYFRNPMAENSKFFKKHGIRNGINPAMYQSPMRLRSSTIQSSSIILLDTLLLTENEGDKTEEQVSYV
# [4] = molecular target: T4, 5-hydroxytryptamine receptor 2C (Homo sapiens, UniProt P28335); assay: Displacement of [3H]5HT from human recombinant 5HT2C receptor expressed in CHO cells; type: cell-based
# T4 sequence (P28335 whole entry): T1 sequence (whole entry)
# [5] = molecular target: Voltage-gated inwardly rectifying potassium channel KCNH2 (Homo sapiens, UniProt Q12809); assay: Inhibition of hERG potassium channel expressed in CHO cells by whole cell patch clamp method; type: toxicity, cell-based
# Voltage-gated inwardly rectifying potassium channel KCNH2, sequence (Q12809 whole entry): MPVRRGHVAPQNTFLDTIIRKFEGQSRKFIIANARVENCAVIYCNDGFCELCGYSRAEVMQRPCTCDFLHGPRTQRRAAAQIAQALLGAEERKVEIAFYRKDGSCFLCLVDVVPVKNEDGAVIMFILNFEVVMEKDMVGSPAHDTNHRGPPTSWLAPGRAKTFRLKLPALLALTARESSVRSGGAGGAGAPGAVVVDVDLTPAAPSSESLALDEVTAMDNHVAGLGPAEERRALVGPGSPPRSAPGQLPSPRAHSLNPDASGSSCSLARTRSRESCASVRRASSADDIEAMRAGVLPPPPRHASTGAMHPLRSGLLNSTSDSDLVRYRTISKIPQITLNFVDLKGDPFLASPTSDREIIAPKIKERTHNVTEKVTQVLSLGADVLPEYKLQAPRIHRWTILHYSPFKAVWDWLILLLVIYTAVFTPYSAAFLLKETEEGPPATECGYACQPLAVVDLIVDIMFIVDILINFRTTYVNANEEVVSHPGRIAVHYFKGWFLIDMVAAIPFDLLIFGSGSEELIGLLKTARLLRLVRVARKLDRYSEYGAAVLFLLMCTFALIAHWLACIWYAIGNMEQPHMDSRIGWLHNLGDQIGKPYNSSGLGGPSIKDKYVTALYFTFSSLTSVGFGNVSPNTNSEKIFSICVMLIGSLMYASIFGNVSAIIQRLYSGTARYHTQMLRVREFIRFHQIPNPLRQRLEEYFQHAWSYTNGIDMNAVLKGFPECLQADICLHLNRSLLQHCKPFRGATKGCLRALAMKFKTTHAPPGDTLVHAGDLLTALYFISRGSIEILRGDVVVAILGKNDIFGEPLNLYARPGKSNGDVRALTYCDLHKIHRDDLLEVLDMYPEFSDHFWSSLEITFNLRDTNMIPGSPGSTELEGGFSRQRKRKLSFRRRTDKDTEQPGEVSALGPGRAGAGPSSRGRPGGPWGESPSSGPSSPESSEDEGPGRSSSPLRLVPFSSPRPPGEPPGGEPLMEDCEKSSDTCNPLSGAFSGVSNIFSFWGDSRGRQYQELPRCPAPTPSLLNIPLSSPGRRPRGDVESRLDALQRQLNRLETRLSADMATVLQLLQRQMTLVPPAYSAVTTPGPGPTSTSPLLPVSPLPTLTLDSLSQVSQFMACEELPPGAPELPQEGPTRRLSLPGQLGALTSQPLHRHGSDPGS
# [6] = molecular target: hERG (KCNH2) (Homo sapiens, UniProt Q12809); assay: Inhibition of hERG potassium channel expressed in CHO cells by whole cell patch clamp method at 10 uM; type: toxicity, cell-based; settings: CHO cells expressing hERG
# [7] = tested on: Phospholipidosis; assay: In vitro phospholipidosis in fibroblasts at 7.5uM; type: ADME, cell-based; settings: fibroblast
# [8] = molecular target: T3, 5-hydroxytryptamine receptor 2B; assay: Efficacy against human recombinant 5HT2B receptor induced intracellular calcium mobilization in CHO cells by FLIPR; type: functional, cell-based
# [9] = molecular target: T4, 5-hydroxytryptamine receptor 2C; assay: Efficacy against human recombinant 5HT2C receptor induced intracellular calcium mobilization in CHO cells by FLIPR
# [10] = molecular target: 5-hydroxytryptamine receptor 1D (Homo sapiens, UniProt P28221); assay: Binding affinity to 5HT1D receptor
# [11] = molecular target: 5-hydroxytryptamine receptor 1A (Homo sapiens, UniProt P08908); assay: Binding affinity to 5HT1A receptor
# [12] = molecular target: 5-hydroxytryptamine receptor 1B (Homo sapiens, UniProt P28222); assay: Binding affinity to 5HT1B receptor
# [13] = molecular target: 5-hydroxytryptamine receptor 5A (Homo sapiens, UniProt P47898); assay: Binding affinity to 5HT5A receptor
# [14] = molecular target: 5-hydroxytryptamine receptor 6 (Homo sapiens, UniProt P50406); assay: Binding affinity to 5HT6 receptor
# 5-hydroxytryptamine receptor 6, sequence (P50406 whole entry): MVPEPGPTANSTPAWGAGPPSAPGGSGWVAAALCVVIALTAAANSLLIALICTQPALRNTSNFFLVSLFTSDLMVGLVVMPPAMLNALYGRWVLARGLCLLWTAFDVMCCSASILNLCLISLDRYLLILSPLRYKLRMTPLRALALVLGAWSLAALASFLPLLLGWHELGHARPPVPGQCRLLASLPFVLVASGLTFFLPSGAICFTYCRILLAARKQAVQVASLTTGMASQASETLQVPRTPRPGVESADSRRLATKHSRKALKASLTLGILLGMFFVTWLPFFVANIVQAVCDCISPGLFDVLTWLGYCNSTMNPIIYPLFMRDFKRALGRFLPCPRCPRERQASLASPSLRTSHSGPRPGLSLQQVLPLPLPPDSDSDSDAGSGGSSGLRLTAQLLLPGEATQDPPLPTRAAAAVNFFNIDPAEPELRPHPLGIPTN
# [15] = molecular target: Adrenergic receptor alpha-1 (Homo sapiens, UniProt P35348+P25100+P35368); assay: Binding affinity to alpha-1 adrenergic receptor; type: protein assay
# [16] = molecular target: D(4) dopamine receptor (Homo sapiens, UniProt P21917); assay: Binding affinity to D4 receptor
# D(4) dopamine receptor, sequence (P21917 whole entry): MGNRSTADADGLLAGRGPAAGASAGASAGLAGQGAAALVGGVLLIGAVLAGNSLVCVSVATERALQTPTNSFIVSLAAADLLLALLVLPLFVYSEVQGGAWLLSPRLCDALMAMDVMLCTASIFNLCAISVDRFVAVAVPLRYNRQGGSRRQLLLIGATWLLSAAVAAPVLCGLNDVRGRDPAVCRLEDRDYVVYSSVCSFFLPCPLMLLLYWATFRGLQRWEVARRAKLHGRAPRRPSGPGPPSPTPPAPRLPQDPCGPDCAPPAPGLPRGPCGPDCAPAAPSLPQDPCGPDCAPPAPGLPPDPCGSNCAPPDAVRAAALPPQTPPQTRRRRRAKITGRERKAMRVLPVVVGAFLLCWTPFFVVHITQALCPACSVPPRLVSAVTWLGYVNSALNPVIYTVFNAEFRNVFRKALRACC
# [17] = molecular target: Serotonin 3 (5-HT3) receptor; assay: Binding affinity to 5HT3 receptor; type: protein-complex assay, Homo sapiens
# [18] = molecular target: 5-hydroxytryptamine receptor 7 (Homo sapiens, UniProt P34969); assay: Binding affinity to 5HT7 receptor
# [19] = molecular target: Beta-1 adrenergic receptor (Homo sapiens, UniProt P08588); assay: Binding affinity to beta-1 adrenergic receptor
# [20] = molecular target: Mu-type opioid receptor (Homo sapiens, UniProt P35372); assay: Binding affinity to mu type opioid receptor
# [21] = molecular target: Sodium-dependent serotonin transporter (Homo sapiens, UniProt P31645); assay: Binding affinity to 5HT transporter
# Sodium-dependent serotonin transporter, sequence (P31645 whole entry): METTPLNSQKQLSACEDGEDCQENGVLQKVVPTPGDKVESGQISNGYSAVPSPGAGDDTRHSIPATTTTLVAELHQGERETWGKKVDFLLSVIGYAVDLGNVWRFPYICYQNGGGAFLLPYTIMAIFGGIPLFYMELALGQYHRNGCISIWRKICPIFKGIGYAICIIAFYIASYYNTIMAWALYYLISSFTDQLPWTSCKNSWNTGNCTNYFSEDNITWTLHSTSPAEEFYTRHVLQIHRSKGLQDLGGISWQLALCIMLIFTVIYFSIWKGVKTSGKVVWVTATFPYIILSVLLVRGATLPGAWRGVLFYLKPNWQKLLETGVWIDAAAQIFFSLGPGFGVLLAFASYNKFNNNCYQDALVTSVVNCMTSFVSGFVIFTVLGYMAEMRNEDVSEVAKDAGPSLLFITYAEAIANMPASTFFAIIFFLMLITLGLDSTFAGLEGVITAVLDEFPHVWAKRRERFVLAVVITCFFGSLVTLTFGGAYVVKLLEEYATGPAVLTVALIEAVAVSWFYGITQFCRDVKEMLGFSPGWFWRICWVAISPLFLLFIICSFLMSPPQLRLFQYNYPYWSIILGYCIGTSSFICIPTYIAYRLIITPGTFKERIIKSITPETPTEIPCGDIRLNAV
# [22] = molecular target: Sodium-dependent noradrenaline transporter (Homo sapiens, UniProt P23975); assay: Binding affinity to NA transporter
# Sodium-dependent noradrenaline transporter, sequence (P23975 whole entry): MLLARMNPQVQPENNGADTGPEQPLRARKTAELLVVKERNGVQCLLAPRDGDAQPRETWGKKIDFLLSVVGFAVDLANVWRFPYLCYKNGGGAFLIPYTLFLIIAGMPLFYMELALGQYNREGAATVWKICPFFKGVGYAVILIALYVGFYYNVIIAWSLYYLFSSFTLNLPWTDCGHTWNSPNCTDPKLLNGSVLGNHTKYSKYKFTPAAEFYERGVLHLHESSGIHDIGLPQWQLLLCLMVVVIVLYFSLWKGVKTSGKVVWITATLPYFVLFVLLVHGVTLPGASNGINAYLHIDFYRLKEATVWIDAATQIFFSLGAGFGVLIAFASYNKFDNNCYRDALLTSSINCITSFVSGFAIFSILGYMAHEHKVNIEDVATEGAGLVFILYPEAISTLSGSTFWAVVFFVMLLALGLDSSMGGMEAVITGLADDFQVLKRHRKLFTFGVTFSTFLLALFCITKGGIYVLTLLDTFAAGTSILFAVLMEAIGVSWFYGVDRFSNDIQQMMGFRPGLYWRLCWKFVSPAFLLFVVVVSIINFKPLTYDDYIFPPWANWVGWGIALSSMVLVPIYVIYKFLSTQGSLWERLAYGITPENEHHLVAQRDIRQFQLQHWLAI
# [23] = molecular target: Sodium-dependent dopamine transporter (Homo sapiens, UniProt Q01959); assay: Binding affinity to DA transporter
# Sodium-dependent dopamine transporter, sequence (Q01959 whole entry): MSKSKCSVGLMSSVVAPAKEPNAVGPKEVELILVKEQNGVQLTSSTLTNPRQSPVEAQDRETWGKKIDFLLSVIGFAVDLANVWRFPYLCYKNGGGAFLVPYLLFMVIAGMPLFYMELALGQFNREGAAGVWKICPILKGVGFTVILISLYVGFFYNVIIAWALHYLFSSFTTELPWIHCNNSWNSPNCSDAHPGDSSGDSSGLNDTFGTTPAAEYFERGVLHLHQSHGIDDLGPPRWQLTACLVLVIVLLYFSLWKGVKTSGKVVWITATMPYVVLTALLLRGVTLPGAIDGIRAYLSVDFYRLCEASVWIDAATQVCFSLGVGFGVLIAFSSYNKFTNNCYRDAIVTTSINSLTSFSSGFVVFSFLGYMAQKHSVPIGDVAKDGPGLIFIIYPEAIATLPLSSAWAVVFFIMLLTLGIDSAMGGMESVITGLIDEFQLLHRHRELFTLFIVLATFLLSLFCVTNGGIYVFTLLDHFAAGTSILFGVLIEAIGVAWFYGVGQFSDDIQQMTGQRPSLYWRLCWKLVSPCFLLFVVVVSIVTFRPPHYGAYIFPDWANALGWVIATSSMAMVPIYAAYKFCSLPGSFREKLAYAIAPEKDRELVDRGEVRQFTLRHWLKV
# [24] = Binding affinity to sodium channel
# [25] = tested on: Rattus norvegicus; assay: Reduction of food intake in po dosed Hooded Lister rat; type: functional; settings: read-out: MED
# [26] = tested on: Phospholipidosis; assay: In vitro phospholipidosis in fibroblasts at 20uM; type: ADME
# [27] = molecular target: T2, 5-hydroxytryptamine receptor 2A
# Description: Binding affinity to human recombinant 5HT2A receptor
smiles,measurement,setting,value
C[C@H](O)c1ccc2c(n1)N1[C@@H](CNC[C@H]1C)C2,Efficacy,[1],101%
same,Ki,[2],392 nM
same,Ki,[3],835 nM
same,Ki,[4],39 nM
C[C@@H]1CNC[C@@H]2Cc3ccc(Br)nc3N21,Efficacy,[1],87%
same,Ki,[2],58 nM
same,Ki,[3],166 nM
same,Ki,[4],21 nM
C[C@@H]1CNC[C@H]2Cc3ccc(C(F)(F)F)nc3N21,Efficacy,[1],96%
same,Ki,[2],43 nM
same,Ki,[3],68 nM
same,Ki,[4],14 nM
C[C@@H]1CNC[C@H]2Cc3ccc(Cl)nc3N21,Efficacy,[1],98%
same,Ki,[2],42 nM
same,Ki,[3],48 nM
same,Ki,[4],1.6 nM
same,IC50,[5],40000 nM
C[C@@H]1CNC[C@@H]2Cc3ccc(Cl)nc3N21,Efficacy,[1],81%
same,Ki,[2],54 nM
same,Ki,[3],217 nM
same,Ki,[4],52 nM
COc1ccc2c(n1)N1[C@@H](CNC[C@H]1C)C2,Efficacy,[1],77%
same,Ki,[2],511 nM
same,Ki,[3],440 nM
same,Ki,[4],104 nM
CCO[C@@H](C)c1ccc2c(n1)N1[C@@H](CNC[C@H]1C)C2,Efficacy,[1],83%
same,Ki,[2],65 nM
same,Ki,[3],295 nM
same,Ki,[4],2.3 nM
same,inhibition at 10 µM,[6],20%
COCc1ccc2c(n1)N1[C@@H](CNC[C@H]1C)C2,Efficacy,[1],97%
same,Ki,[2],565 nM
same,Ki,[3],379 nM
same,Ki,[4],16 nM
C[C@@H]1CNC[C@H]2Cc3ccc(C#N)nc3N21,Efficacy,[1],85%
same,Ki,[2],2550 nM
same,Ki,[3],1820 nM
same,Ki,[4],60 nM
Cc1c(Cl)ccc2c1N1[C@H](CNC[C@H]1C)C2,Ki,[2],19 nM
same,Ki,[3],40 nM
same,Phospholipidosis,[7],7.5 µM
C[C@@H]1CNC[C@H]2Cc3ccc(Br)nc3N21,Efficacy,[1],97%
same,Ki,[2],53 nM
same,Ki,[3],81 nM
same,Ki,[4],0.8 nM
Clc1ccc2c(n1)N1CCNCC1C2 (centres undefined),Ki,[2],217 nM
same,Ki,[3],221 nM
same,Ki,[4],131 nM
C[C@@H]1CNC[C@H]2Cc3ccc(CO)nc3N21,Efficacy,[1],88%
same,Ki,[2],942 nM
same,Ki,[3],1140 nM
same,Ki,[4],54 nM
CC(=O)Nc1ccc2c(n1)N1[C@@H](CNC[C@H]1C)C2,Efficacy,[1],0%
C[C@@H]1CNC[C@H]2Cc3ccc(COCC4CC4)nc3N21,Efficacy,[1],87%
same,Ki,[2],74 nM
same,Ki,[3],174 nM
same,Ki,[4],3.6 nM
same,EC50,[8],23 nM
same,Emax,[8],31%
same,EC50,[9],15 nM
same,Ki,[10],> 360 nM
same,Ki,[11],> 720 nM
same,Ki,[12],> 720 nM
same,Ki,[13],> 720 nM
same,Ki,[14],> 720 nM
same,Ki,[15],> 1000 nM
same,Ki,[16],> 720 nM
same,Ki,[17],> 1000 nM
same,Ki,[18],> 1000 nM
same,Ki,[19],> 1000 nM
same,Ki,[20],> 1000 nM
same,Ki,[21],> 1000 nM
same,Ki,[22],> 1000 nM
same,Ki,[23],> 1000 nM
same,Ki,[24],> 1000 nM
same,minimal effective dose,[25],10 mg/kg
same,IC50,[5],> 30000 nM
same,Phospholipidosis,[26],Not Active
same,pKb,[27],6.7
CCO[C@H](C)c1ccc2c(n1)N1[C@@H](CNC[C@H]1C)C2,Efficacy,[1],86%
same,Ki,[2],2380 nM
same,Ki,[3],1310 nM
same,Ki,[4],93 nM
Cc1ccc2c(n1)N1[C@@H](CNC[C@H]1C)C2,Efficacy,[1],101%
same,Ki,[2],136 nM
same,Ki,[3],77 nM
same,Ki,[4],2.7 nM
same,IC50,[5],21000 nM
same,Phospholipidosis,[26],Not Active
